Calls of active or inactive are those of the source. The rule behind the calls is not given here.
How the values were obtained:
C3H 10T1/2 [1] = test: Induction of lipolysis in mouse C3H10T1/2 assessed as glycerol concentration at 10 uM relative to control; type: functional
Adipocyte = test: Induction of lipolysis in human Adipocyte assessed as glycerol concentration at 10 uM relative to control; type: functional
C3H 10T1/2 [2] = test: Induction of lipolysis in mouse C3H10T1/2 assessed as glycerol concentration; type: functional, cell-based
3T3-L1 [3] = test: Effect on adipogenesis in mouse 3T3L1 cells assessed as cellular lipid content by Oil red O staining; type: functional, cell-based
3T3-L1 [4] = test: Effect on adipogenesis in mouse 3T3L1 cells assessed as FABP4 mRNA expression by RT-PCR method; type: functional, cell-based
[5] = molecular target: cGMP-inhibited 3',5'-cyclic phosphodiesterase 3B (Homo sapiens, UniProt Q13370); test: Inhibition of human recombinant PDE3B
cGMP-inhibited 3',5'-cyclic phosphodiesterase 3B, sequence (Q13370 whole entry): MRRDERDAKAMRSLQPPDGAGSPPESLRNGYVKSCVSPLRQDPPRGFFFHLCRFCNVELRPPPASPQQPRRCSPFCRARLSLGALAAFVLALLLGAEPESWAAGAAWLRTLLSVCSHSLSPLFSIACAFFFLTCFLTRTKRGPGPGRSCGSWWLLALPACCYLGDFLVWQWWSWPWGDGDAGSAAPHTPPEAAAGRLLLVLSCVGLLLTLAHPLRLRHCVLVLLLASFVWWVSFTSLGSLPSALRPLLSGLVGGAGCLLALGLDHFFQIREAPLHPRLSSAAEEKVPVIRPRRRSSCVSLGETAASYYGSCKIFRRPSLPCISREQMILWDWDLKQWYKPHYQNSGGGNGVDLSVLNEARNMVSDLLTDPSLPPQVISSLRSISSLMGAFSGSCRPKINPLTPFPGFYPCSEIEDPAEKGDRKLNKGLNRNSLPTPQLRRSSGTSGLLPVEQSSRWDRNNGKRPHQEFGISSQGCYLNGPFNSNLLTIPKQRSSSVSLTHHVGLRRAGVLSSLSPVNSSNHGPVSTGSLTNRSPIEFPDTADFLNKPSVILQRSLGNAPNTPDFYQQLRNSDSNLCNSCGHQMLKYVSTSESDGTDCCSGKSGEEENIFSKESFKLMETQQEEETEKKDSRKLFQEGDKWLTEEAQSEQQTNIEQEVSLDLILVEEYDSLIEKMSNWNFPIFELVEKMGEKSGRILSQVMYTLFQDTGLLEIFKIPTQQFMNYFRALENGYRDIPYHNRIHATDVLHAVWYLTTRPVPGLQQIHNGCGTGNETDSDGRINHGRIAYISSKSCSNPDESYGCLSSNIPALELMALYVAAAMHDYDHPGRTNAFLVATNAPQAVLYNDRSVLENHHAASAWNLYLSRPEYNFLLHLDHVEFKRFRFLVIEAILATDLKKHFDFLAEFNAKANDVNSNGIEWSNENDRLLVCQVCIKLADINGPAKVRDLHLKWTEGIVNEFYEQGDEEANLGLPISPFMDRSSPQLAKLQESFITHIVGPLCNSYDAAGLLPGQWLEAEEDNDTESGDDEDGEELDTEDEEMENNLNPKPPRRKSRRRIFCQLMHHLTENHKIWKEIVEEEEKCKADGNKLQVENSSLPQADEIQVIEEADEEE

3T3-L1 [6] = test: Effect on adipogenesis in mouse 3T3L1 cells assessed as adiponectin mRNA expression by RT-PCR method; type: functional, cell-based
3T3-L1 [7] = test: Effect on adipogenesis in mouse 3T3L1 cells assessed as G3PD mRNA expression by RT-PCR method; type: functional, cell-based
[8] = molecular target: cGMP-inhibited 3',5'-cyclic phosphodiesterase 3A (Homo sapiens, UniProt Q14432); test: Inhibition of human recombinant PDE3A
cGMP-inhibited 3',5'-cyclic phosphodiesterase 3A, sequence (Q14432 whole entry): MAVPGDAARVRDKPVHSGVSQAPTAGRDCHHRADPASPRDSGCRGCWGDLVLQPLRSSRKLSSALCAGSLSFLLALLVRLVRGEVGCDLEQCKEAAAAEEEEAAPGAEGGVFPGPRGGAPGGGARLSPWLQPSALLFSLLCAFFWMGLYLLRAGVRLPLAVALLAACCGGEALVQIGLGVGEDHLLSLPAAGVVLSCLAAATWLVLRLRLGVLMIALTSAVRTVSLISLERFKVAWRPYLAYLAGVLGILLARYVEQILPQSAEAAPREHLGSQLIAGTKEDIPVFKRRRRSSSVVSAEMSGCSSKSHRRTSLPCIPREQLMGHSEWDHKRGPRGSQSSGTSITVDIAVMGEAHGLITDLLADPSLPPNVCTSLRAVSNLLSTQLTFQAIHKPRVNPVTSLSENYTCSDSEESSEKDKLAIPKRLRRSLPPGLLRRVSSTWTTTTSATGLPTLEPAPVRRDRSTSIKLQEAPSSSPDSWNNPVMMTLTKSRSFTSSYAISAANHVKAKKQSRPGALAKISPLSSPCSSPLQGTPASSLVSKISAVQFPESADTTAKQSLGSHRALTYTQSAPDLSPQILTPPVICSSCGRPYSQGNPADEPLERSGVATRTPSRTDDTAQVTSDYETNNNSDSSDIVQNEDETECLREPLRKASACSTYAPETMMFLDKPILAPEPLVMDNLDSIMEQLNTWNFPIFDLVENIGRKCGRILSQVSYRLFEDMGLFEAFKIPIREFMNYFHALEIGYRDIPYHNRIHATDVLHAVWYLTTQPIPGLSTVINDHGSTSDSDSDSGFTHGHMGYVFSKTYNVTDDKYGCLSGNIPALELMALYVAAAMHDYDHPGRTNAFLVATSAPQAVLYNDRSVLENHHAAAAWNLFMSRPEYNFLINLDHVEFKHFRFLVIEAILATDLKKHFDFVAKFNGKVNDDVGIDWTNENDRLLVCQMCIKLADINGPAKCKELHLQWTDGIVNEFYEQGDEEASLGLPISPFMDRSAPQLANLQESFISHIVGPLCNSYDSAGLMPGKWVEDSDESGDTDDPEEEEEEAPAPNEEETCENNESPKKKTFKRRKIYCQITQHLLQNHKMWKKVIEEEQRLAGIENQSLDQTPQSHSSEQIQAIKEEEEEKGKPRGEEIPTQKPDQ

3T3-L1 [9] = test: Effect on adipogenesis in mouse 3T3L1 cells assessed as PPARgamma mRNA expression by RT-PCR method; type: functional, cell-based

CC1=NN(S(=O)(=O)c2ccc(C)cc2)C(O)(C(F)(F)F)C1 (stereo not given)
Activity (C3H 10T1/2 [1]): 171.3% | Activity (Adipocyte): 116.67% | EC50 (C3H 10T1/2 [2]): 6.8 nM

C/C(=N\NS(=O)(=O)c1ccc(C)cc1)c1ccc2c(c1)C(C)(C)C(=O)N2
Activity (C3H 10T1/2 [1]): 191.7% | Activity (3T3-L1 [3]): Active | Activity (3T3-L1 [4]): Active | IC50 [5]: 88.4 nM | Activity (3T3-L1 [6]): Active | Activity (3T3-L1 [7]): Active | IC50 [8]: 14.8 nM | Activity (Adipocyte): 171.5% | Activity (3T3-L1 [9]): Active | EC50 (C3H 10T1/2 [2]): 8.9 nM

Cc1ccc(S(=O)(=O)N/N=C2\CC(C)(C)Oc3ccc([N+](=O)[O-])cc32)cc1
Activity (C3H 10T1/2 [1]): 168.4% | Activity (Adipocyte): 116.67% | EC50 (C3H 10T1/2 [2]): 5.2 nM

CC(C)NCC(O)c1ccc(O)c(O)c1 (stereo not given) [ISOPROTERENOL]
Activity (C3H 10T1/2 [1]): 291.3% | Activity (Adipocyte): 214.39% | EC50 (C3H 10T1/2 [2]): 19 nM

CCCC(NS(=O)(=O)c1ccc2c(c1)CCCC(=O)N2)c1cccs1 (stereo not given)
Activity (C3H 10T1/2 [1]): 131.9% | Activity (Adipocyte): 130.2%

CN(C(=O)CCCOc1ccc2[nH]c(=O)ccc2c1)C1CCCCC1 [CILOSTAMIDE]
Activity (C3H 10T1/2 [1]): 247.36% | Activity (3T3-L1 [3]): Active | Activity (3T3-L1 [4]): Active | IC50 [5]: 69.1 nM | Activity (3T3-L1 [6]): Active | Activity (3T3-L1 [7]): Active | Activity (Adipocyte): 192.4% | Activity (3T3-L1 [9]): Active | EC50 (C3H 10T1/2 [2]): 9.1 nM

Source: ChEMBL document CHEMBL1681753, “Discovery of new inhibitor for PDE3 by virtual screening” (Bioorg Med Chem Lett, 2011)
